Measurements: patent US12534457B2, “Heteroaryl derivative compounds, and uses thereof” (Voronoi Inc., priority 2021, dated 2026)

Each compound was assayed on Ba/F3 cells expressing EGFR Del19/C797S (EGFR DC) (assay: Proliferation inhibitory activity, Ba/F3 cells expressing EGFR Del19/C797S (CellTiter-Glo)). Settings: Mus musculus, BaF3, 72 hours of compound treatment.
Assay type: cell-based
Procedure: The following experiments were performed to evaluate the inhibitory activity of the compounds according to the present disclosure on Ba/F3 proliferation expressing EGFR C797S, L861Q, G719A, S768I, L718Q, and/or G724S mutations.
For Ba/F3 cells, RPMI-1640 containing 10% FBS and 5 ng/ml IL-3 (R&D Systems) was used. Transduced Ba/F3 cells were cultured after adding 1 μg/ml puromycin (Invitrogen) to the same medium.
At 24 hours before treatment with the compounds, 3000 to 5000 cells were aliquoted into each well of a white clear bottom 96 well plate (Corning). The compounds were diluted in dimethyl sulfoxide (3 times dilution, 12 concentrations in total), and injected in an amount of 1 μl so that the final concentration was 0.2 nM to 5 uM. For measurement of living cells, after 72 hours of compound treatment, the cells were stored at room temperature for 10 min using CellTiter-Glo luminescentcell-viability reagent (Promega), and then luminescence intensity was measured using a reader (SynergyNeo, Biotek). Each test was repeated three times. Result values were calculated as the cell growth rate (%) compared to the control. The graphs were created using GraphPad Prism version 8.3.0 program and the GI50 values were calculated.

COc1cc(N2CCC(N3CCN(C)CC3)CC2)ccc1Nc1cc(N2OCC[C@@H]2c2ccc(C)nc2)ncn1 [Example 38, (R)—N-(2-methoxy-4-(4-(4-methylpiperazin-1-yl)piperidin-1-yl)phenyl)-6-(3-(6-methylpyridin-3-yl)isoxazolidin-2-yl)pyrimidin-4-amine] and COc1cccc([C@H]2CCON2c2cc(Nc3ccc(N4CCC(N5CCN(C)CC5)CC4)cc3OC)ncn2)c1 [Example 41, (R)—N-(2-methoxy-4-(4-(4-methylpiperazin-1-yl)piperidin-1-yl)phenyl)-6-(3-(3-methoxyphenyl)isoxazolidin-2-yl)pyrimidin-4-amine] fall in the same range of GI50: 50 to 500 nM for the first, 50 to 500 nM for the second.

CN1CCC(N2CCN3c4ccc(Nc5cc(N6OCC[C@@H]6c6ccccc6)ncn5)cc4OC[C@H]3C2)CC1 [Example 48, (R)-3-(1-methylpiperidin-4-yl)-N-(6-((R)-3-phenylisoxazolidin-2-yl)pyrimidin-4-yl)-1,2,3,4,4a,5-hexahydrobenzo[b]pyrazino[1,2-d][1,4]oxazin-8-amine] and Cc1cc(Nc2cc(N3OCC[C@@H]3c3ccccc3)ncn2)ccc1N1CCC(N2CCN(C)CC2)CC1 [Example 53, (R)—N-(3-methyl-4-(4-(4-methylpiperazin-1-yl)piperidin-1-yl)phenyl)-6-(3-phenylisoxazolidin-2-yl)pyrimidin-4-amine] cannot be ordered by GI50: under 50 nM for the first, under 50 nM for the second.

COc1cc2c(cc1Nc1cc(N3OCC[C@@H]3c3ccccc3)ncn1)OC[C@H]1C[C@@H](N3CCN(C4CC4)CC3)CCN21 [Example 49, (6aR,8S)-8-(4-cyclopropylpiperazin-1-yl)-2-methoxy-N-(6-((R)-3-phenylisoxazolidin-2-yl)pyrimidin-4-yl)-6,6a,7,8,9,10-hexahydrobenzo[b]pyrido[1,2-d] [1,4]oxazin-3-amine] and COc1cc(N2CCC(N3CCC(N4CCN(C5CC5)CC4)CC3)CC2)ccc1Nc1cc(N2OCC[C@@H]2c2ccccc2)ncn1 [Example 63, (R)—N-(4-(4-(4-cyclopropylpiperazin-1-yl)-[1,4′-bipiperidin]-1′-yl)-2-methoxyphenyl)-6-(3-phenylisoxazolidin-2-yl)pyrimidin-4-amine] cannot be ordered by GI50: under 50 nM for the first, under 50 nM for the second.

Cc1cc(N2CCC(N3CCN(C)CC3)CC2)ccc1Nc1cc(N2OCC[C@@H]2c2ccccc2)ncn1 [Example 52, (R)—N-(2-methyl-4-(4-(4-methylpiperazin-1-yl)piperidin-1-yl)phenyl)-6-(3-phenylisoxazolidin-2-yl)pyrimidin-4-amine] and CN1CCN(C2CCN(c3ccc(Nc4cc(N5OCC[C@@H]5c5ccccc5)ncn4)cc3)CC2)CC1 [Example 54, (R)—N-(4-(4-(4-methylpiperazin-1-yl)piperidin-1-yl)phenyl)-6-(3-phenylisoxazolidin-2-yl)pyrimidin-4-amine] cannot be ordered by GI50: under 50 nM for the first, under 50 nM for the second.

C[C@@H](Oc1cc(N2CCC(N3CCN(C)CC3)CC2)ccc1Nc1cc(N2OCC[C@@H]2c2ccccc2)ncn1)C(F)(F)F [Example 56, N-(4-(4-(4-methylpiperazin-1-yl)piperidin-1-yl)-2-(((R)-1,1,1-trifluoropropan-2-yl)oxy)phenyl)-6-((R)-3-phenylisoxazolidin-2-yl)pyrimidin-4-amine] and COc1cc(N2CCC(N3CCCC3)CC2)ccc1Nc1cc(N2OCC[C@@H]2c2ccccc2)ncn1 [Example 62, (R)—N-(2-methoxy-4-(4-(pyrrolidin-1-yl)piperidin-1-yl)phenyl)-6-(3-phenylisoxazolidin-2-yl)pyrimidin-4-amine] cannot be ordered by GI50: under 50 nM for the first, under 50 nM for the second.

COc1cc(N2CCC(N3C[C@H]4C[C@@H]3CN4C)CC2)ccc1Nc1cc(N2OCC[C@@H]2c2ccccc2)ncn1 [Example 57, N-(2-methoxy-4-(4-((1R,4R)-5-methyl-2,5-diazabicyclo[2.2.1]heptan-2-yl)piperidin-1-yl)phenyl)-6-((R)-3-phenylisoxazolidin-2-yl)pyrimidin-4-amine] and COc1cc(N2CCC(N3CCN(C4CC4)C(C)(C)C3)CC2)ccc1Nc1cc(N2OCC[C@@H]2c2ccccc2)ncn1 [Example 61, (R)—N-(4-(4-(4-cyclopropyl-3,3-dimethylpiperazin-1-yl)piperidin-1-yl)-2-methoxyphenyl)-6-(3-phenylisoxazolidin-2-yl)pyrimidin-4-amine] cannot be ordered by GI50: under 50 nM for the first, under 50 nM for the second.

COc1cc(N2C[C@H]3C[C@@H]2CO3)ccc1Nc1cc(N2OCC[C@@H]2c2ccccc2)ncn1 [Example 59, N-(4-((1R,4R)-2-oxa-5-azabicyclo[2.2.1]heptan-5-yl)-2-methoxyphenyl)-6-((R)-3-phenylisoxazolidin-2-yl)pyrimidin-4-amine] and Fc1ncc(N2C[C@@H]3C[C@H]2CO3)cc1Nc1cc(N2OCC[C@@H]2c2ccccc2)ncn1 [Example 74, N-(5-((1S,4S)-2-oxa-5-azabicyclo[2.2.1]heptan-5-yl)-2-fluoropyridin-3-yl)-6-((R)-3-phenylisoxazolidin-2-yl)pyrimidin-4-amine] cannot be ordered by GI50: under 50 nM for the first, under 50 nM for the second.

COc1cc(OCCN(C)C)ccc1Nc1cc(N2OCC[C@@H]2c2ccccc2)ncn1 [Example 64, (R)—N-(4-(2-(dimethylamino)ethoxy)-2-methoxyphenyl)-6-(3-phenylisoxazolidin-2-yl)pyrimidin-4-amine] and COc1cc(SCCN(C)C)ccc1Nc1cc(N2OCC[C@@H]2c2ccccc2)ncn1 [Example 65, (R)—N-(4-((2-(dimethylamino)ethyl)thio)-2-methoxyphenyl)-6-(3-phenylisoxazolidin-2-yl)pyrimidin-4-amine] cannot be ordered by GI50: under 50 nM for the first, under 50 nM for the second.

COc1cc(N2CCSCC2)ccc1Nc1cc(N2OCC[C@@H]2c2ccccc2)ncn1 [Example 66, (R)—N-(2-methoxy-4-thiomorpholinophenyl)-6-(3-phenylisoxazolidin-2-yl)pyrimidin-4-amine] and COc1cc(N2CCCN(C)CC2)ccc1Nc1cc(N2OCC[C@@H]2c2ccccc2)ncn1 [Example 67, (R)—N-(2-methoxy-4-(4-methyl-1,4-diazepan-1-yl)phenyl)-6-(3-phenylisoxazolidin-2-yl)pyrimidin-4-amine] cannot be ordered by GI50: under 50 nM for the first, under 50 nM for the second.

C=CCN1CCN(c2ccc(Nc3cc(N4OCC[C@@H]4c4ccccc4)ncn3)cc2)CC1 [Example 68, (R)—N-(4-(4-allylpiperazin-1-yl)phenyl)-6-(3-phenylisoxazolidin-2-yl)pyrimidin-4-amine] and c1ccc([C@H]2CCON2c2cc(Nc3ccc(N4CCNCC4)cc3)ncn2)cc1 [Example 77, (R)-6-(3-phenylisoxazolidin-2-yl)-N-(4-(piperazin-1-yl)phenyl)pyrimidin-4-amine] cannot be ordered by GI50: under 50 nM for the first, under 50 nM for the second.

CN(C)[C@@H]1CCN(c2ccc(Nc3cc(N4OCC[C@@H]4c4ccccc4)ncn3)cc2)C1 [Example 69, N-(4-((R)-3-(dimethylamino)pyrrolidin-1-yl)phenyl)-6-((R)-3-phenylisoxazolidin-2-yl)pyrimidin-4-amine] and O=C1CCCN1c1ccc(Nc2cc(N3OCC[C@@H]3c3ccccc3)ncn2)cc1 [Example 75, (R)-1-(4-((6-(3-phenylisoxazolidin-2-yl)pyrimidin-4-yl)amino)phenyl)pyrrolidin-2-one] cannot be ordered by GI50: under 50 nM for the first, under 50 nM for the second.

First: CN1CCN(C(=O)c2ccc(Nc3cc(N4OCC[C@@H]4c4ccccc4)ncn3)cc2)CC1 [Example 72, (R)-(4-methylpiperazin-1-yl) (4-((6-(3-phenylisoxazolidin-2-yl)pyrimidin-4-yl)amino)phenyl)methanone]
Second: CN1Cc2cc(Nc3cc(N4OCC[C@@H]4c4ccccc4)ncn3)ccc2C1=O [Example 76, (R)-2-methyl-5-((6-(3-phenylisoxazolidin-2-yl)pyrimidin-4-yl)amino)isoindolin-1-one]
The GI50 of the first is higher: 50 to 500 nM for the first, under 50 nM for the second.

First: FC(F)(F)c1cccc(Nc2cc(N3OCC[C@@H]3c3ccccc3)ncn2)c1 [Example 73, (R)-6-(3-phenylisoxazolidin-2-yl)-N-(3-(trifluoromethyl)phenyl)pyrimidin-4-amine]
Second: c1ccc([C@H]2CCON2c2cc(Nc3ccc4c(c3)CCNC4)ncn2)cc1 [Example 78, (R)—N-(6-(3-phenylisoxazolidin-2-yl)pyrimidin-4-yl)-1,2,3,4-tetrahydroisoquinolin-6-amine]
The GI50 of the first is higher: 50 to 500 nM for the first, under 50 nM for the second.

Cn1nccc1-c1ccc(Nc2cc(N3OCC[C@@H]3c3ccccc3)ncn2)c2c1OCCO2 [Example 80, (R)—N-(8-(1-methyl-1H-pyrazol-5-yl)-2,3-dihydrobenzo[b][1,4]dioxin-5-yl)-6-(3-phenylisoxazolidin-2-yl)pyrimidin-4-amine] and COc1cc(P2(=O)CCN(C3CC3)CC2)ccc1Nc1cc(N2OCC[C@@H]2c2ccccc2)ncn1 [Example 81, (R)-1-cyclopropyl-4-(3-methoxy-4-((6-(3-phenylisoxazolidin-2-yl)pyrimidin-4-yl)amino)phenyl)-1,4-azaphosphinane 4-oxide] fall in the same range of GI50: 50 to 500 nM for the first, 50 to 500 nM for the second.

c1ccc([C@H]2CCON2c2cc(Nc3ccc4c(c3)CC[C@H](N3CCCC3)CC4)ncn2)cc1 [Example 83, 6-((R)-3-phenylisoxazolidin-2-yl)-N—((R)-7-(pyrrolidin-1-yl)-6,7,8,9-tetrahydro-5H-benzo[7]annulen-2-yl)pyrimidin-4-amine] and CCC(=O)Nc1cc(Nc2cc(N3OCC[C@@H]3c3cc(F)cc(F)c3)ncn2)c(OC)cc1N1CCC(N2CCC(N(C)C)CC2)CC1 [Example 85, (R)—N-(5-((6-(3-(3,5-difluorophenyl)isoxazolidin-2-yl)pyrimidin-4-yl)amino)-2-(4-(dimethylamino)-[1,4′-bipiperidin]-1′-yl)-4-methoxyphenyl)propionamide] cannot be ordered by GI50: under 50 nM for the first, under 50 nM for the second.
